Common to all, as to experiment: Kinase selectivity, P33-radiolabeled assay
Type in all cases: biochemical
Settings in all cases: 10 μM ATP

In one test the target is T1, DYRK1B (Homo sapiens, UniProt Q9Y463).
T1 construct: purchased Reaction Biology Corp
The essentials: (§1)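 Percent residual kinase activity versus DMSO is reported. Conditions: compound at 10 μM, ATP at 10 μM, n = 2.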

A further test concerns the target T2, FGR (Homo sapiens, UniProt P09769).
T2 construct: purchased Reaction Biology Corp
The essentials: as §1

In another test the target is T3, GRK2 (Homo sapiens, UniProt P25098).
T3 construct: purchased Reaction Biology Corp
T3 sequence (P25098 1-689): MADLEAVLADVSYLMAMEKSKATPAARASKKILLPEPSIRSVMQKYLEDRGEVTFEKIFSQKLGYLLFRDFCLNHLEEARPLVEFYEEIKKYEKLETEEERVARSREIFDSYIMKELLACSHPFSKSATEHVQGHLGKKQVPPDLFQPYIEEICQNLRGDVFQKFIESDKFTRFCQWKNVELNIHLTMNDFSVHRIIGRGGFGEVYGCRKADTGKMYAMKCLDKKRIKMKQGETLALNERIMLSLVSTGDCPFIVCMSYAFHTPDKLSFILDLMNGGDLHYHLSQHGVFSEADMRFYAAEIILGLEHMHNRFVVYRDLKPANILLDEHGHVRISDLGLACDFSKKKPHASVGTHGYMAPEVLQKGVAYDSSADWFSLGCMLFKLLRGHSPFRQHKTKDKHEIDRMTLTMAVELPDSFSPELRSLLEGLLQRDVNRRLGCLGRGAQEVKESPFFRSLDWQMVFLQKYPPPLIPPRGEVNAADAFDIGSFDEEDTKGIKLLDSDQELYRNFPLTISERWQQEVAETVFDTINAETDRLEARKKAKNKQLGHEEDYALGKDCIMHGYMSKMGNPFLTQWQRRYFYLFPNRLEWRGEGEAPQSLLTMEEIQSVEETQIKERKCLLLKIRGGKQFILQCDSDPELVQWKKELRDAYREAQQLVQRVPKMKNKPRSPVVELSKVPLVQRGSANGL
The essentials: as §1

A further test addresses T4, LCK (Homo sapiens, UniProt P06239).
T4 construct: purchased Reaction Biology Corp
The essentials: as §1

Another test has as its target T5, PBK/TOPK (Homo sapiens, UniProt Q96KB5).
T5 construct: purchased Reaction Biology Corp
T5 sequence (Q96KB5 1-322): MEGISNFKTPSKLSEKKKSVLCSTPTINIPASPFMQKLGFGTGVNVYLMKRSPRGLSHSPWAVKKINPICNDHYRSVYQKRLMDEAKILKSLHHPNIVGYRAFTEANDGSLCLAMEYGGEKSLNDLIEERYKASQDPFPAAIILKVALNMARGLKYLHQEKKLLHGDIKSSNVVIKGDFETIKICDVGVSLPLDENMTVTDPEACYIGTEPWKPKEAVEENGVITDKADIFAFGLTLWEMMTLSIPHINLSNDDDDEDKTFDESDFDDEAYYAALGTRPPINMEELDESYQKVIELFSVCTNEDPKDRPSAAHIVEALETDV
The essentials: as §1

A further test concerns the target T6, SSTK/TSSK6 (Homo sapiens, UniProt Q9BXA6).
T6 construct: purchased Reaction Biology Corp
The procedure, abridged: as §1

In another test the target is T7, c-MER (Homo sapiens, UniProt Q12866).
T7 construct: purchased Reaction Biology Corp
T7 sequence (Q12866 21-999): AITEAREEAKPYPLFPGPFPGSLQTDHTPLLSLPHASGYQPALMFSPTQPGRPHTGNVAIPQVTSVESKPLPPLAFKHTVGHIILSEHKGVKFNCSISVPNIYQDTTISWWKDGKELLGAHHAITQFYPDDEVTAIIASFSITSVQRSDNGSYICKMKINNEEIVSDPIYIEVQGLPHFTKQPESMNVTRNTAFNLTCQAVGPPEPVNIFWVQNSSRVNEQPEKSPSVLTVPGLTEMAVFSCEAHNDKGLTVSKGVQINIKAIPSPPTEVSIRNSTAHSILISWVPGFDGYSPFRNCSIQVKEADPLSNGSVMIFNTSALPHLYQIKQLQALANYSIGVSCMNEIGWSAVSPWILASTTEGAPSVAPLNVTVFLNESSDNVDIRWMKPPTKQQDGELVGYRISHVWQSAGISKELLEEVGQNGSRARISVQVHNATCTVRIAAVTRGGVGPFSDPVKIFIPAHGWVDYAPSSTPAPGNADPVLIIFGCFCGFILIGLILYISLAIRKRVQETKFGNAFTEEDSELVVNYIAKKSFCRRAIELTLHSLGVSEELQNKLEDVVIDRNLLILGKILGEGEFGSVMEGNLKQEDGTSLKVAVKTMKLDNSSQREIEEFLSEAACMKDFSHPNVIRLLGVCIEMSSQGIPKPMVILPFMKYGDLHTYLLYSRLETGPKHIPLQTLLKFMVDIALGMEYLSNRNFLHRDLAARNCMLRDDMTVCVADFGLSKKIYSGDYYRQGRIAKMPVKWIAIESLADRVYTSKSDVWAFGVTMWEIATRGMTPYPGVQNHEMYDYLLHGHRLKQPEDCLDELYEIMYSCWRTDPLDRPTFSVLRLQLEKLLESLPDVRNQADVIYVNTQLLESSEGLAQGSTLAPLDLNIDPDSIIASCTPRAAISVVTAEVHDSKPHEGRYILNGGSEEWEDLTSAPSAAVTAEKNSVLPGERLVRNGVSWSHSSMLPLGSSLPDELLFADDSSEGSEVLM
The procedure, abridged: as §1

The mark [1] stands for this setting: read-out: % Enzyme Activity (relative to DMSO controls) AVG.
[2] abbreviates: read-out: % Enzyme Activity (relative to DMSO controls) Data 1.
[3] abbreviates: read-out: % Enzyme Activity (relative to DMSO controls) Data 2.

This note sets out measurements from article PMC4979471 (Cell Death Discovery, 2015).

Read-outs that look alike come from different tables or passages of the source.

T6 sequence (Q9BXA6 whole entry): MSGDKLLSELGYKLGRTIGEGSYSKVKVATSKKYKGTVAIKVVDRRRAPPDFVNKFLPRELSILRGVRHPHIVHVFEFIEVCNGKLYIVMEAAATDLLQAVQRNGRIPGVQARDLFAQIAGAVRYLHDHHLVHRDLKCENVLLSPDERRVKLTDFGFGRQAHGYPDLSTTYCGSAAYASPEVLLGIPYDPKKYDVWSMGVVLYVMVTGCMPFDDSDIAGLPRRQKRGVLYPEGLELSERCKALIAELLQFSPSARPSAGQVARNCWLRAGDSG
T4 sequence (P06239 whole entry): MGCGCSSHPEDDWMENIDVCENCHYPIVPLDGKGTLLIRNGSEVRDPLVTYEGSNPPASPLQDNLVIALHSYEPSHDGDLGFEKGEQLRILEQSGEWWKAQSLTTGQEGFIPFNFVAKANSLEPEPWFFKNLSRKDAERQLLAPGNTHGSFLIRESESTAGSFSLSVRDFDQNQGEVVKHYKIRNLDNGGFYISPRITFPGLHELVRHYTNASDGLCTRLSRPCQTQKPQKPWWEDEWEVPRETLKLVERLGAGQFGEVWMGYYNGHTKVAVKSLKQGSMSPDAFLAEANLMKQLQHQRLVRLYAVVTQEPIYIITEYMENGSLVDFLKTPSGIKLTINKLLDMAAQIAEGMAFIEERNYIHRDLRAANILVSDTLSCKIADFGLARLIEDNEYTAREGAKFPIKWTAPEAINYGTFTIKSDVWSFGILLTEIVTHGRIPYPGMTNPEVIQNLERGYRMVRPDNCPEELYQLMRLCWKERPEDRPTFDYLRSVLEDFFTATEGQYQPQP
T1 sequence (Q9Y463 whole entry): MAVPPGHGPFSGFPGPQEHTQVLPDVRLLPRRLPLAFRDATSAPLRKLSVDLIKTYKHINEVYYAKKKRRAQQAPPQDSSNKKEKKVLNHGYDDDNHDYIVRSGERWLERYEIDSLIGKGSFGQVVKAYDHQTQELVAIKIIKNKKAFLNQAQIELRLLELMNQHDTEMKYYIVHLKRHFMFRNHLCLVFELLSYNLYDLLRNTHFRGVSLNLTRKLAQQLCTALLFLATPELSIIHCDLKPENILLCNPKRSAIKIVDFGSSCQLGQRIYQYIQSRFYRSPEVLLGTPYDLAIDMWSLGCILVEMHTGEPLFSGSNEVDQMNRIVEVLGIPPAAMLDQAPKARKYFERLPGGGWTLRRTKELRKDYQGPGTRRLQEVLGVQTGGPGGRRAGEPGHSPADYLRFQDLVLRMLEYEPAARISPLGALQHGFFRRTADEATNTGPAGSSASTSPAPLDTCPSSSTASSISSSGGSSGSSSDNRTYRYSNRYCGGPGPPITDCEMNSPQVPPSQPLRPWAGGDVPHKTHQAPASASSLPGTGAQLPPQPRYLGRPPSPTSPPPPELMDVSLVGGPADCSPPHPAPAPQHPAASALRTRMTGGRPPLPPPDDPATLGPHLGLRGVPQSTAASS
T2 sequence (P09769 whole entry): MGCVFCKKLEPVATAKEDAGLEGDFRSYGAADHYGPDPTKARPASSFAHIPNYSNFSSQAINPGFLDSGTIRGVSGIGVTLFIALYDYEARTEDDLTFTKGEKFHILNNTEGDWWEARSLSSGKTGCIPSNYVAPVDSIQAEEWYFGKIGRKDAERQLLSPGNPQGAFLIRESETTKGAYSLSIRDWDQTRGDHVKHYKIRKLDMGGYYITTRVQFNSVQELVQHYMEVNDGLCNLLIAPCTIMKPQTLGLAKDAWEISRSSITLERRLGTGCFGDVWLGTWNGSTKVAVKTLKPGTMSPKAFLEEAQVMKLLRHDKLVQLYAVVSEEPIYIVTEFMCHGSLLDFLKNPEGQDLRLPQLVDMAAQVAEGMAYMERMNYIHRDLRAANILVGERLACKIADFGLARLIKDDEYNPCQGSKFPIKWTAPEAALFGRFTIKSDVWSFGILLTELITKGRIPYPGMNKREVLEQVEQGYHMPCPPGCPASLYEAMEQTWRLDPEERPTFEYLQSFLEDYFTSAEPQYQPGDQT

`CC(C)(C)C(=O)N1N=CC[C@H]1c1ccccc1` [GSK′963]: the remaining activity at 10 µM on DYRK1B (setting [1]) turned out to be 102%; on DYRK1B (setting [2]) it was 103%; on DYRK1B (setting [3]), 101%; on FGR (setting [1]) it was 107%; at FGR (setting [2]) it was 106%; on FGR (setting [3]) it was 108%. Also, the remaining activity at 10 µM at GRK2 (setting [1]) turned out to be 95.7%; at GRK2 (setting [2]) it was 99.5%; on GRK2 (setting [3]), 91.8%; on LCK (setting [1]), 96.4%; on LCK (setting [2]), 96.1%; on LCK (setting [3]), 96.7%. The remaining activity at 10 µM on PBK/TOPK (setting [1]) is 104%; on PBK/TOPK (setting [2]), 103%; at PBK/TOPK (setting [3]), 105%; at SSTK/TSSK6 (setting [1]) it was 99%; at SSTK/TSSK6 (setting [2]) it was 99.3%; at SSTK/TSSK6 (setting [3]), 98.6%. For the same compound, the remaining activity at 10 µM amounted to 94.8% on c-MER (setting [1]), 94.5% on c-MER (setting [2]) and 95.1% on c-MER (setting [3]).
